Source: ChEMBL document CHEMBL1201862, “PubChem BioAssay data set” (2004)
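Exposure lasted 48 hours, with cells grown in 96-well plates and compounds tested at five concentrations. GI50 is the concentration that inhibits growth by half.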 The source made the active and inactive calls. Rule as the data show it: active = GI50 up to about 1.1 µM and inactive = higher.

Tests used:
Experiment in all cases: NCI tumour cell line growth inhibition, 48 h
T47D = test system: T47D
OVCAR-8 = test system: OVCAR-8
786-0 = test system: 786-0
HOP-92 = test system: HOP-92
SK-MEL-5 = test system: SK-MEL-5
HL-60 = test system: HL-60
UACC-257 = test system: UACC-257
SNB-75 = test system: SNB-75
MOLT-4 = test system: MOLT-4
SK-MEL-28 = test system: SK-MEL-28
NCI-H23 = test system: NCI-H23
M14 = test system: M14
SR = test system: SR
OVCAR-5 = test system: OVCAR-5
A549 = test system: A549
ACHN = test system: ACHN
K562 = test system: K562
COLO 205 = test system: COLO 205
RXF 393 = test system: RXF 393
MDA-N = test system: MDA-N
NCI-H522 = test system: NCI-H522
DU-145 = test system: DU-145
HCT-116 = test system: HCT-116
BT-549 = test system: BT-549
CAKI-1 = test system: CAKI-1
CCRF-CEM = test system: CCRF-CEM
HOP-62 = test system: HOP-62
NCI-H460 = test system: NCI-H460
SW-620 = test system: SW-620
UO-31 = test system: UO-31
A498 = test system: A498
NCI-H226 = test system: NCI-H226
NCI/ADR-RES = test system: NCI/ADR-RES
SK-MEL-2 = test system: SK-MEL-2
SF-268 = test system: SF-268
U-251 = test system: U-251
IGROV-1 = test system: IGROV-1
PC-3 = test system: PC-3
MDA-MB-231 = test system: MDA-MB-231
HCC 2998 = test system: HCC 2998
RPMI-8226 = test system: RPMI-8226
HT-29 = test system: HT-29
SF-295 = test system: SF-295
Hs-578T = test system: Hs-578T
SK-OV-3 = test system: SK-OV-3
HCT-15 = test system: HCT-15
SNB-19 = test system: SNB-19
TK-10 = test system: TK-10
EKVX = test system: EKVX
MDA-MB-435 = test system: MDA-MB-435
UACC-62 = test system: UACC-62
KM12 = test system: KM12
OVCAR-4 = test system: OVCAR-4
OVCAR-3 = test system: OVCAR-3
SN12C = test system: SN12C
SF-539 = test system: SF-539
MCF7 = test system: MCF7
Malme-3M = test system: Malme-3M
LOX IMVI = test system: LOX IMVI

CN1C(=O)c2ccc3ccccc3c2C1=O
GI50 (T47D): 63.5 µM (inactive) | GI50 (OVCAR-8): > 100 µM (inactive) | GI50 (786-0): > 100 µM (inactive) | GI50 (HOP-92): 98.6 µM (inactive) | GI50 (SK-MEL-5): > 100 µM (inactive) | GI50 (HL-60): 28.1 µM (inactive) | GI50 (UACC-257): > 100 µM (inactive) | GI50 (SNB-75): 27.9 µM (inactive) | GI50 (MOLT-4): > 100 µM (inactive) | GI50 (SK-MEL-28): > 100 µM (inactive) | GI50 (NCI-H23): > 100 µM (inactive) | GI50 (M14): > 100 µM (inactive) | GI50 (SR): > 100 µM (inactive) | GI50 (OVCAR-5): > 100 µM (inactive) | GI50 (A549): > 100 µM (inactive) | GI50 (ACHN): > 100 µM (inactive) | GI50 (K562): > 100 µM (inactive) | GI50 (COLO 205): > 100 µM (inactive) | GI50 (RXF 393): 30.8 µM (inactive) | GI50 (MDA-N): > 100 µM (inactive) | GI50 (NCI-H522): 86.1 µM (inactive) | GI50 (DU-145): > 100 µM (inactive) | GI50 (HCT-116): 77.4 µM (inactive) | GI50 (BT-549): > 100 µM (inactive) | GI50 (CAKI-1): > 100 µM (inactive) | GI50 (CCRF-CEM): > 100 µM (inactive) | GI50 (HOP-62): > 100 µM (inactive) | GI50 (NCI-H460): > 100 µM (inactive) | GI50 (SW-620): > 100 µM (inactive) | GI50 (UO-31): > 100 µM (inactive) | GI50 (A498): 47.3 µM (inactive) | GI50 (NCI-H226): > 100 µM (inactive) | GI50 (NCI/ADR-RES): > 100 µM (inactive) | GI50 (SK-MEL-2): > 100 µM (inactive) | GI50 (SF-268): > 100 µM (inactive) | GI50 (U-251): > 100 µM (inactive) | GI50 (IGROV-1): > 100 µM (inactive) | GI50 (PC-3): > 100 µM (inactive) | GI50 (MDA-MB-231): > 100 µM (inactive) | GI50 (HCC 2998): > 100 µM (inactive) | GI50 (RPMI-8226): > 100 µM (inactive) | GI50 (HT-29): > 100 µM (inactive) | GI50 (SF-295): > 100 µM (inactive) | GI50 (Hs-578T): 73.1 µM (inactive) | GI50 (SK-OV-3): > 100 µM (inactive) | GI50 (HCT-15): > 100 µM | GI50 (SNB-19): > 100 µM (inactive) | GI50 (TK-10): > 100 µM (inactive) | GI50 (EKVX): 14 µM (inactive) | GI50 (MDA-MB-435): > 100 µM (inactive) | GI50 (UACC-62): > 100 µM (inactive) | GI50 (KM12): > 100 µM (inactive) | GI50 (OVCAR-4): > 100 µM (inactive) | GI50 (OVCAR-3): > 100 µM (inactive) | GI50 (SN12C): > 100 µM (inactive) | GI50 (SF-539): > 100 µM (inactive) | GI50 (MCF7): > 100 µM (inactive)

COc1cc2c(c(O)c1OC)C(=O)C1CCC(=O)N1C2c1cccc2ccccc12 (stereo not given)
GI50 (T47D): 36.6 µM (inactive) | GI50 (OVCAR-8): 49.1 µM (inactive) | GI50 (786-0): > 100 µM (inactive) | GI50 (HOP-92): 19.3 µM (inactive) | GI50 (SK-MEL-5): 31.6 µM (inactive) | GI50 (HL-60): 20.6 µM (inactive) | GI50 (UACC-257): 30.1 µM (inactive) | GI50 (SNB-75): > 100 µM (inactive) | GI50 (MOLT-4): 21.4 µM (inactive) | GI50 (SK-MEL-28): 73.6 µM (inactive) | GI50 (NCI-H23): 89.7 µM (inactive) | GI50 (M14): 51.4 µM (inactive) | GI50 (SR): 26.5 µM (inactive) | GI50 (OVCAR-5): 94.4 µM (inactive) | GI50 (A549): 28.8 µM (inactive) | GI50 (ACHN): 28.9 µM (inactive) | GI50 (K562): 18.9 µM (inactive) | GI50 (Malme-3M): 81.8 µM (inactive) | GI50 (COLO 205): 15.4 µM (inactive) | GI50 (RXF 393): 21.4 µM (inactive) | GI50 (MDA-N): 40.8 µM (inactive) | GI50 (NCI-H522): 23.7 µM (inactive) | GI50 (DU-145): > 100 µM (inactive) | GI50 (HCT-116): 50.5 µM (inactive) | GI50 (BT-549): 45 µM (inactive) | GI50 (CAKI-1): 85.1 µM (inactive) | GI50 (CCRF-CEM): 18.5 µM (inactive) | GI50 (HOP-62): 54.8 µM (inactive) | GI50 (NCI-H460): 32.3 µM (inactive) | GI50 (SW-620): 39.7 µM (inactive) | GI50 (UO-31): 31.3 µM (inactive) | GI50 (A498): > 100 µM (inactive) | GI50 (NCI-H226): > 100 µM (inactive) | GI50 (NCI/ADR-RES): 41.2 µM (inactive) | GI50 (SK-MEL-2): 50.7 µM (inactive) | GI50 (SF-268): 57.8 µM (inactive) | GI50 (U-251): 37.4 µM (inactive) | GI50 (IGROV-1): 36.1 µM (inactive) | GI50 (PC-3): 25.2 µM (inactive) | GI50 (MDA-MB-231): 23.8 µM (inactive) | GI50 (RPMI-8226): 20.7 µM (inactive) | GI50 (HT-29): 42.5 µM (inactive) | GI50 (SF-295): 43.2 µM (inactive) | GI50 (Hs-578T): 82.6 µM (inactive) | GI50 (SK-OV-3): 18.7 µM (inactive) | GI50 (HCT-15): 41.3 µM | GI50 (SNB-19): 41.9 µM (inactive) | GI50 (EKVX): 37.5 µM (inactive) | GI50 (MDA-MB-435): 44.5 µM (inactive) | GI50 (UACC-62): 58.5 µM (inactive) | GI50 (KM12): 42.3 µM (inactive) | GI50 (OVCAR-4): 47.4 µM (inactive) | GI50 (OVCAR-3): 30.6 µM (inactive) | GI50 (SN12C): 77.4 µM (inactive) | GI50 (SF-539): 41.5 µM (inactive) | GI50 (MCF7): 32.5 µM (inactive)

CC(C)(C)c1c2c(c(C(C)(C)C)c3c1OCN(Cc1ccccc1)C3)OCN(Cc1ccccc1)C2
GI50 (T47D): 31.7 µM (inactive) | GI50 (OVCAR-8): 26.2 µM (inactive) | GI50 (786-0): 12.9 µM (inactive) | GI50 (HOP-92): 12 µM (inactive) | GI50 (SK-MEL-5): 8.87 µM (inactive) | GI50 (UACC-257): 12.8 µM (inactive) | GI50 (SNB-75): 37.2 µM (inactive) | GI50 (MOLT-4): 18.2 µM (inactive) | GI50 (SK-MEL-28): 29.6 µM (inactive) | GI50 (NCI-H23): 12.9 µM (inactive) | GI50 (M14): 14.2 µM (inactive) | GI50 (SR): 18.9 µM (inactive) | GI50 (OVCAR-5): 13.4 µM (inactive) | GI50 (A549): 17.6 µM (inactive) | GI50 (ACHN): 17.8 µM (inactive) | GI50 (K562): 17.6 µM (inactive) | GI50 (Malme-3M): 18.7 µM (inactive) | GI50 (COLO 205): 13.7 µM (inactive) | GI50 (RXF 393): 14.7 µM (inactive) | GI50 (MDA-N): 11.7 µM (inactive) | GI50 (LOX IMVI): 16.3 µM (inactive) | GI50 (NCI-H522): 10.9 µM (inactive) | GI50 (DU-145): 22.6 µM (inactive) | GI50 (HCT-116): 11.3 µM (inactive) | GI50 (BT-549): 16.9 µM (inactive) | GI50 (CAKI-1): 33.2 µM (inactive) | GI50 (CCRF-CEM): 28 µM (inactive) | GI50 (HOP-62): 18.9 µM (inactive) | GI50 (NCI-H460): 15.1 µM (inactive) | GI50 (SW-620): 24.5 µM (inactive) | GI50 (UO-31): 17.2 µM (inactive) | GI50 (A498): 6 µM (inactive) | GI50 (NCI/ADR-RES): 19.6 µM (inactive) | GI50 (SK-MEL-2): 16.6 µM (inactive) | GI50 (SF-268): 16.2 µM (inactive) | GI50 (U-251): 14.8 µM (inactive) | GI50 (IGROV-1): 21 µM (inactive) | GI50 (PC-3): 16.6 µM (inactive) | GI50 (MDA-MB-231): 15.5 µM (inactive) | GI50 (HCC 2998): 10.5 µM (inactive) | GI50 (RPMI-8226): 8.69 µM (inactive) | GI50 (HT-29): 16.7 µM (inactive) | GI50 (SF-295): 15.2 µM (inactive) | GI50 (Hs-578T): 20.4 µM (inactive) | GI50 (SK-OV-3): 22.6 µM (inactive) | GI50 (HCT-15): 16.5 µM | GI50 (SNB-19): 11 µM (inactive) | GI50 (TK-10): 15 µM (inactive) | GI50 (EKVX): 12.7 µM (inactive) | GI50 (MDA-MB-435): 28.5 µM (inactive) | GI50 (UACC-62): 17.7 µM (inactive) | GI50 (KM12): 21.3 µM (inactive) | GI50 (OVCAR-4): 44.7 µM (inactive) | GI50 (OVCAR-3): 14 µM (inactive) | GI50 (SN12C): 15.4 µM (inactive) | GI50 (SF-539): 16 µM (inactive) | GI50 (MCF7): 11 µM (inactive)
